In ChEMBL document CHEMBL1201862, “PubChem BioAssay data set” (2004):
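A five-concentration, 48-hour dose response in 96-well plates underlies each endpoint, interpolated linearly between surrounding concentrations. Abbreviation: GI50, concentration required for 50% inhibition of growth.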 Active and inactive are the calls of the source. Cut-off read from the data, not from the text of the source: active = GI50 up to about 1.1 µM and inactive = higher.

Experiments:
Assay in all cases: growth of human tumour cells (NCI), 48 h
NCI-H460 = system: NCI-H460
MOLT-4 = system: MOLT-4
NCI-H226 = system: NCI-H226
SF-268 = system: SF-268
ACHN = system: ACHN
A549 = system: A549
UO-31 = system: UO-31
OVCAR-5 = system: OVCAR-5
EKVX = system: EKVX
CCRF-CEM = system: CCRF-CEM
SK-MEL-2 = system: SK-MEL-2
HOP-62 = system: HOP-62
RPMI-8226 = system: RPMI-8226
OVCAR-3 = system: OVCAR-3
TK-10 = system: TK-10
KM12 = system: KM12
UACC-257 = system: UACC-257

Measured: GI50

C(=C1/CCCCC([n+]2ccccc2)=N1)/c1ccccc1
inactive: NCI-H460 > 100 µM | MOLT-4 > 100 µM | NCI-H226 > 100 µM | SF-268 > 100 µM | ACHN > 100 µM | A549 > 100 µM | UO-31 > 100 µM | OVCAR-5 > 100 µM | EKVX > 100 µM | CCRF-CEM > 100 µM | SK-MEL-2 > 100 µM | HOP-62 > 100 µM | RPMI-8226 > 100 µM | OVCAR-3 > 100 µM

COc1ccc2[nH]c3c(c2c1)CCN(C)CC3
inactive: TK-10 > 100 µM | NCI-H460 > 100 µM | MOLT-4 > 100 µM | KM12 > 100 µM | SF-268 > 100 µM | ACHN > 100 µM | A549 > 100 µM | OVCAR-5 > 100 µM | EKVX > 100 µM | UACC-257 > 100 µM | CCRF-CEM > 100 µM | SK-MEL-2 > 100 µM | HOP-62 > 100 µM | RPMI-8226 > 100 µM | OVCAR-3 > 100 µM

Cc1cccc(C)c1NC(=O)C(=O)C(C#N)c1ccccc1Cl (stereo not given)
inactive: TK-10 > 100 µM | NCI-H460 > 100 µM | MOLT-4 > 100 µM | NCI-H226 > 100 µM | KM12 > 100 µM | SF-268 > 100 µM | ACHN > 100 µM | A549 > 100 µM | UO-31 > 100 µM | OVCAR-5 > 100 µM | EKVX > 100 µM | UACC-257 > 100 µM | CCRF-CEM > 100 µM | SK-MEL-2 > 100 µM | HOP-62 > 100 µM | RPMI-8226 > 100 µM | OVCAR-3 > 100 µM

O=C1OC(c2ccccc2)=N/C1=C/NC(CO)C(=O)O (stereo not given)
inactive: TK-10 > 100 µM | NCI-H460 > 100 µM | NCI-H226 > 100 µM | KM12 > 100 µM | SF-268 > 100 µM | ACHN > 100 µM | A549 > 100 µM | UO-31 > 100 µM | OVCAR-5 > 100 µM | EKVX > 100 µM | UACC-257 > 100 µM | CCRF-CEM > 100 µM | SK-MEL-2 > 100 µM | HOP-62 > 100 µM | RPMI-8226 > 100 µM | OVCAR-3 > 100 µM

CCOCc1cc(=O)c2c(OC)cc3c(c2o1)CCC(C)(C)O3
inactive: TK-10 > 100 µM | NCI-H460 > 100 µM | MOLT-4 > 100 µM | KM12 > 100 µM | ACHN > 100 µM | A549 > 100 µM | UO-31 > 100 µM | OVCAR-5 > 100 µM | EKVX > 100 µM | UACC-257 > 100 µM | CCRF-CEM > 100 µM | SK-MEL-2 > 100 µM | HOP-62 > 100 µM | OVCAR-3 > 100 µM

COc1ccc2cccc(C(=N)c3ccc(C)c4c3CCC4)c2c1
inactive: TK-10 11.6 µM | NCI-H460 4.3 µM | MOLT-4 8.63 µM | NCI-H226 12.2 µM | KM12 10.2 µM | SF-268 16.4 µM | ACHN 9.98 µM | A549 13.7 µM | UO-31 4.45 µM | OVCAR-5 6.17 µM | EKVX 15.5 µM | UACC-257 4.89 µM | CCRF-CEM 6.58 µM | SK-MEL-2 11.9 µM | HOP-62 7.26 µM | OVCAR-3 3.52 µM

Cc1ccc(S(=O)(=O)Nc2ccccc2C(C)(C)C)cc1
inactive: TK-10 37.1 µM | NCI-H460 18.6 µM | MOLT-4 20.9 µM | NCI-H226 22.1 µM | KM12 17.2 µM | ACHN 28.1 µM | A549 27.7 µM | UO-31 18.6 µM | OVCAR-5 34.6 µM | EKVX 33.2 µM | UACC-257 16.1 µM | CCRF-CEM 21.4 µM | SK-MEL-2 26.7 µM | HOP-62 20 µM | RPMI-8226 18.7 µM | OVCAR-3 17.2 µM

O=[N+]([O-])c1ccc(C[P+](c2ccccc2)(c2ccccc2)c2ccccc2)cc1
inactive: TK-10 56 µM | NCI-H460 71.3 µM | MOLT-4 > 100 µM | NCI-H226 > 100 µM | KM12 52.5 µM | ACHN > 100 µM | A549 > 100 µM | UO-31 > 100 µM | OVCAR-5 > 100 µM | EKVX > 100 µM | UACC-257 16.1 µM | CCRF-CEM 80 µM | SK-MEL-2 25.4 µM | HOP-62 > 100 µM | RPMI-8226 26.2 µM | OVCAR-3 42.8 µM

CC1(C)CC(=O)C=C(NC(=O)c2ccccc2)C1
inactive: TK-10 > 100 µM | NCI-H460 > 100 µM | MOLT-4 > 100 µM | KM12 > 100 µM | SF-268 > 100 µM | A549 > 100 µM | UO-31 > 100 µM | EKVX > 100 µM | UACC-257 > 100 µM | CCRF-CEM > 100 µM | SK-MEL-2 > 100 µM | HOP-62 > 100 µM | RPMI-8226 > 100 µM | OVCAR-3 > 100 µM

CCOC(=O)C1CC/C(=C(/C#N)C(=O)OC)N1 (stereo not given)
inactive: TK-10 > 100 µM | NCI-H460 > 100 µM | MOLT-4 > 100 µM | KM12 > 100 µM | SF-268 > 100 µM | ACHN > 100 µM | A549 > 100 µM | UO-31 > 100 µM | EKVX > 100 µM | UACC-257 > 100 µM | CCRF-CEM > 100 µM | SK-MEL-2 > 100 µM | HOP-62 > 100 µM | RPMI-8226 > 100 µM | OVCAR-3 > 100 µM

COCc1c(CO)cnc(C)c1OC1OC(CO)C(O)C(O)C1O (stereo not given)
inactive: NCI-H460 > 100 µM | MOLT-4 > 100 µM | NCI-H226 > 100 µM | KM12 > 100 µM | SF-268 > 100 µM | ACHN > 100 µM | A549 > 100 µM | UO-31 > 100 µM | OVCAR-5 > 100 µM | EKVX > 100 µM | UACC-257 > 100 µM | SK-MEL-2 > 100 µM | HOP-62 > 100 µM | RPMI-8226 > 100 µM | OVCAR-3 > 100 µM

COc1cc2ccnc3c2c(c1OC)-c1coc(SC)c1-3
inactive: TK-10 > 100 µM | NCI-H460 97.3 µM | MOLT-4 22.1 µM | KM12 > 100 µM | SF-268 92 µM | ACHN > 100 µM | A549 > 100 µM | UO-31 26.4 µM | OVCAR-5 > 100 µM | UACC-257 > 100 µM | CCRF-CEM > 10 µM | SK-MEL-2 > 100 µM | HOP-62 54.8 µM | RPMI-8226 13 µM

Oc1ccc([Te]CCNCC[Te]c2ccc(O)cc2)cc1
inactive: TK-10 30.3 µM | NCI-H460 4.67 µM | MOLT-4 4.49 µM | NCI-H226 21.3 µM | KM12 15 µM | SF-268 11.1 µM | ACHN 20.1 µM | A549 3.66 µM | UO-31 9.2 µM | OVCAR-5 16 µM | EKVX 3.56 µM | UACC-257 36 µM | CCRF-CEM 2.97 µM | HOP-62 18.2 µM | RPMI-8226 16.4 µM

O=C(O)c1cc(=O)c2[nH]c3ccccc3c2s1
inactive: TK-10 > 100 µM | NCI-H460 > 100 µM | MOLT-4 > 100 µM | KM12 > 100 µM | SF-268 > 100 µM | ACHN > 100 µM | A549 > 100 µM | UO-31 > 100 µM | OVCAR-5 > 100 µM | EKVX > 100 µM | UACC-257 > 100 µM | CCRF-CEM > 100 µM | SK-MEL-2 > 100 µM | HOP-62 > 100 µM | RPMI-8226 > 100 µM | OVCAR-3 > 100 µM

N#Cc1cc(NC(=O)c2ccccc2)c(=O)n2c1[nH]c1ccccc12
inactive: TK-10 22.2 µM | NCI-H460 33 µM | MOLT-4 29.6 µM | KM12 43.9 µM | SF-268 43.1 µM | ACHN 29.9 µM | A549 24.5 µM | UO-31 18.3 µM | EKVX 36.3 µM | UACC-257 33 µM | CCRF-CEM 37.8 µM | SK-MEL-2 32.1 µM | HOP-62 24.5 µM | RPMI-8226 11.7 µM | OVCAR-3 28.2 µM

CCS(CC)(CC)CC1CCCC2=CCC(P(=O)(c3ccccc3)c3ccccc3)CC21 (stereo not given)
inactive: TK-10 12.7 µM | NCI-H460 10.3 µM | MOLT-4 4.43 µM | NCI-H226 18.7 µM | KM12 11.4 µM | SF-268 11.4 µM | ACHN 9.02 µM | A549 4.89 µM | UO-31 6.32 µM | OVCAR-5 15.6 µM | EKVX 14.3 µM | UACC-257 > 10 µM | CCRF-CEM 6.78 µM | SK-MEL-2 14.2 µM | HOP-62 16.3 µM | OVCAR-3 13.7 µM

C1OC1C1CO1 (stereo not given)
inactive: TK-10 > 100 µM | MOLT-4 3.28 µM | NCI-H226 > 100 µM | KM12 > 100 µM | SF-268 6.43 µM | A549 30.1 µM | UO-31 > 100 µM | OVCAR-5 > 100 µM | EKVX > 100 µM | UACC-257 27.9 µM | CCRF-CEM 3.34 µM | SK-MEL-2 > 100 µM | HOP-62 17.3 µM | RPMI-8226 > 100 µM | OVCAR-3 39.7 µM

Nc1nc(OCc2ccccc2)c2nc[nH]c2n1 [6-O-BENZYLGUANINE]
inactive: TK-10 47.1 µM | NCI-H460 67.6 µM | MOLT-4 67.6 µM | NCI-H226 47.5 µM | KM12 98.6 µM | SF-268 70 µM | ACHN 47.4 µM | A549 73.8 µM | UO-31 25.9 µM | OVCAR-5 80 µM | EKVX 99.5 µM | UACC-257 91 µM | CCRF-CEM 66.8 µM | SK-MEL-2 68.9 µM | HOP-62 51.6 µM | OVCAR-3 90.2 µM
